Test: excess molar enthalpy (molar enthalpy of mixing); xn = mol fraction of the nth substance listed
Conditions: Liquid, Flow calorimetry

CCOC(=O)CC(C)=O [ethyl 3-oxobutanoate] + CCCO
excess molar enthalpy [kcal/mol]
Conditions | 298.15 K | 313.15 K | 328.15 K
100 kPa, x1 = 0.1001 | 0.208 | 0.237 | 0.256
100 kPa, x1 = 0.1998 | 0.324 | 0.378 | 0.414
100 kPa, x1 = 0.3003 | 0.396 | 0.464 | 0.509
100 kPa, x1 = 0.3502 | 0.42 | 0.493 | 0.539
100 kPa, x1 = 0.3994 | 0.436 | 0.512 | 0.558
100 kPa, x1 = 0.4501 | 0.446 | 0.522 | 0.565
100 kPa, x1 = 0.4997 | 0.45 | 0.524 | 0.564
100 kPa, x1 = 0.5505 | 0.446 | 0.517 | 0.553
100 kPa, x1 = 0.5997 | 0.435 | 0.501 | 0.532
100 kPa, x1 = 0.6497 | 0.417 | 0.475 | 0.504
100 kPa, x1 = 0.7007 | 0.39 | 0.441 | 0.462
100 kPa, x1 = 0.7996 | 0.307 | 0.341 | 0.351
100 kPa, x1 = 0.9004 | 0.175 | 0.187 | 0.193
10000 kPa, x1 = 0.1003 | 0.204 | 0.229 | 0.254
10000 kPa, x1 = 0.2001 | 0.318 | 0.364 | 0.407
10000 kPa, x1 = 0.3007 | 0.389 | 0.45 | 0.503
10000 kPa, x1 = 0.3506 | 0.412 | 0.474 | 0.533
10000 kPa, x1 = 0.3998 | 0.427 | 0.492 | 0.552
10000 kPa, x1 = 0.4505 | 0.436 | 0.502 | 0.563
10000 kPa, x1 = 0.5001 | 0.439 | 0.503 | 0.563
10000 kPa, x1 = 0.5509 | 0.435 | 0.498 | 0.552
10000 kPa, x1 = 0.6 | 0.425 | 0.483 | 0.53
10000 kPa, x1 = 0.6501 | 0.407 | 0.457 | 0.502
10000 kPa, x1 = 0.701 | 0.38 | 0.421 | 0.461
10000 kPa, x1 = 0.7999 | 0.3 | 0.322 | 0.35
10000 kPa, x1 = 0.9005 | 0.17 | 0.179 | 0.19
